Reference: patent publication US4451475A, “Cyclic sulphenamide compounds, their production and their medicinal use” (Bayer Aktiengesellschaft, priority 1981, dated 1984)

Assays:
[1] = biological target: T1, platelet lipoxygenase (Homo sapiens, UniProt P18054); experiment: Inhibition of the platelet lipoxygenase (synthesis of HETE), metabolism of radioactively labelled arachidonic acid by washed human platelets; type: cell-based; conditions: in vitro
T1 construct: metabolism of radioactively labelled arachidonic acid by washed human platelets; endogenous in cells; host or cells: washed human platelets
T1 sequence (P18054 1-663): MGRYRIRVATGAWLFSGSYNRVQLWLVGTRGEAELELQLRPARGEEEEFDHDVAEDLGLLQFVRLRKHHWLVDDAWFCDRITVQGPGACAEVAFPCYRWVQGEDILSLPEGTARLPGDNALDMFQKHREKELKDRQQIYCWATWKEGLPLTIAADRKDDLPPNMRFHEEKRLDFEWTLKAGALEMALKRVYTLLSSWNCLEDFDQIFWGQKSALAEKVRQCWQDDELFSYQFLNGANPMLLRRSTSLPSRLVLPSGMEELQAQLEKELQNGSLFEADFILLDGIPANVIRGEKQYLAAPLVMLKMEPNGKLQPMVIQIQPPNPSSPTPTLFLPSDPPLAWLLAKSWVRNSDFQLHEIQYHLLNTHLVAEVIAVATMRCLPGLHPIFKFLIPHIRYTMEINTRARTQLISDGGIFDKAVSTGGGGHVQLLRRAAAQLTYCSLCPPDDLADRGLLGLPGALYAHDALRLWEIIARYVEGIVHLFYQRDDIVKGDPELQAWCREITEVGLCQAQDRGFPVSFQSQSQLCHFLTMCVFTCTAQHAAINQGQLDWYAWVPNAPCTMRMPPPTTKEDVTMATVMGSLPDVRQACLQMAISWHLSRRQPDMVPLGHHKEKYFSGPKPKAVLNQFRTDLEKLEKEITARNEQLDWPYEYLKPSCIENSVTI
Method: Use is made in this test method of the metabolism of radioactively labelled arachidonic acid by washed human platelets. In this in vitro test, the radioactively labelled metabolites are extracted from the reaction mixture and separated by thin layer chromatography. The autoradiogram is evaluated on a thin layer scanner. Under these test conditions, the labelled metabolites are separated from the unreacted arachidonic acid and are subsequently quantitatively evaluated. The distribution of the radioactivity in the cyclooxygenase products, formed during metabolism, thromboxane B2 (TXB2) and 12-hydroxy-5,8,10-heptadecatrienoic acid (HHT) and the lipoxygenase product 12-hydroxy-5,8,11,14-eicosatetraenoic acid (HETE), as influenced by the inhibitors, gives a measure of the inhibition of the enzymes.
The inhibition of lipoxygenase by the sulphenamides according to the invention can be measured by the inhibition of the synthesis of HETE.

[2] = tested on: leucocytes; experiment: Inhibition of the migration of leucocytes after local administration by a sponge soaked in active compound under the dorsal skin of rats; type: in vivo; conditions: 10 mg/rat
From the text: The sulphenamides according to the present invention are also active in vivo. […] The following Table 2 summarises the activities of some illustrative sulphenamides after local administration, by introduction of a piece of sponge soaked in the active compound under the dorsal skin of rats.

[3] = tested on: lipoxygenase; cyclooxygenase; conditions: in words; one statement for all four named inhibitors; cited from earlier work

Row | Minimum effective inhibitory concentration (at least 50% inhibition), inhibition of the platelet lipoxygenase (synthesis of HETE) [1] | SMILES | Inhibition of the migration of leucocytes (control = 0%) [2] | Selectivity/potency of known inhibitors of lipoxygenase [3]
1 | 10^-6 g/ml | O=C1OCCN1Sc1ccccc1 [Example 2, 3-phenylthio-oxazolidin-2-one] | 55% | –
2 | – | CCCCCC=CCC=CCC=CCC=CCCCC(=O)O [5,8,11,14-eicosatetraenoic acid] | – | either simultaneously inhibitors of cyclooxygenase or only active at very high concentrations
3 | – | O=C1CCN(c2ccccc2)N1 [phenidone] | – | either simultaneously inhibitors of cyclooxygenase or only active at very high concentrations
4 | – | O=c1scc(-c2ccccc2)n1Sc1ccc(Cl)cc1 [Example 10, 3-(4-chlorophenylthio)-4-phenylthiazolin-2-one] | 53% | –
5 | – | CC(C)(C)c1ccc(SN2CCOC2=O)cc1 [Example 5, 3-(4-tert.-butylphenylthio)-oxazolidin-2-one] | 72% | –
6 | 10^-7 g/ml | O=C1OCCN1Sc1ccc(Cl)cc1 [Example 4, 3-(4-chlorophenylthio)-oxazolidin-2-one] | 80% | –
7 | – | CC(Cc1ccc(O)c(O)c1)C(C)Cc1ccc(O)c(O)c1 (stereo not drawn) [nordihydroguaiaretic acid] | – | either simultaneously inhibitors of cyclooxygenase or only active at very high concentrations
